# Results from US20070213355A1, “1H-Imidazo[4,5-C]Quinoline Derivatives in the Treatment of Protein Kinase Dependent Diseases” (priority 2003, published 2007).
# Target: T1, PDK1 (Homo sapiens, UniProt O15530)
# T1 construct: release a DNA fragment encoding amino acids 52-556 of PDK1; made in house; host or cells: Sf9 insect cells (baculovirus)
# T1 sequence (O15530 52-556): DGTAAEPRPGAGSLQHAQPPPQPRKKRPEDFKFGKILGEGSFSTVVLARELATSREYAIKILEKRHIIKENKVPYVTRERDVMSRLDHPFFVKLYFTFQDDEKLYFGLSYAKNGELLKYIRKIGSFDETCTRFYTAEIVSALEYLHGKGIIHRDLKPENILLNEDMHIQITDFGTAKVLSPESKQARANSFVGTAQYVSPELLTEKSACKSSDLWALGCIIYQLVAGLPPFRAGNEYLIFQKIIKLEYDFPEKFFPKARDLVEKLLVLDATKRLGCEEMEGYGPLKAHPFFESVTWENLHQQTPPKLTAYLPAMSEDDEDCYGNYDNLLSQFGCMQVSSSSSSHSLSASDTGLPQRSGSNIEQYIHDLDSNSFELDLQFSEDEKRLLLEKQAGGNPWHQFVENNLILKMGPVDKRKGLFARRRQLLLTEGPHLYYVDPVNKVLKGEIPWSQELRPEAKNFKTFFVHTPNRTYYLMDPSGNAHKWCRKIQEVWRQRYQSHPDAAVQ
# Assay: PDK1 kinase inhibition, purified GST-PDK1, 33P-ATP filter assay
# Format: biochemical
# Details: GST-PDK1, 10.0 μM ATP, casein substrate; read-out: IC50 for PDK1 inhibition (range class)
# Source text: PDK1 inhibition can be measured as follows: Cloning and expression: pCMV-GST-PDK1 (G Thomas, FMI Basel, as described in Pullen, N. et al., Science, 279:707-710 (1998)) is digested with EcoR1 and Sma1 to release a DNA fragment encoding amino acids 52-556 of PDK1. This is subsequently ligated to the vector pFB-G01-GST1 with compatible ends achieved by restriction digestion with EcoR1 and Stu1. The ligation reaction is transformed into XL-1 Blue bacteria and plated on selective LB agar. Resultant colonies are cultured overnight, plasmid DNA extracted and restriction analysed. Colonies that are found to contain plasmids with the correct insert are taken for large-scale plasmid preparation and subsequent sequence analysis to confirm the expected plasmid sequence.
# Production of virus: Transfer vectors containing the kinase domain of PDK1 are transfected into the DH10Bac cell line (GIBCO) and the cells are plated on selective agar plates. Colonies without insertion of the fusion sequence into the viral genome (carried by the bacteria) are blue. Single, white colonies are picked and viral DNA (bacmid) is isolated from the bacteria by standard plasmid purification procedures. Sf9 cells or Sf21 cells (American Type Culture Collection) are then transfected in 25 cm^2 flasks with the viral DNA using Celifectin reagent.
# Protein expression in Sf9 cells: Virus-containing media is collected from the transfected cell culture and used for infection to increase its titer. Virus-containing media obtained after two rounds of infection is used for large-scale protein expression. For large-scale protein expression 100 cm^2 round tissue culture plates are seeded with 5×10^7 cells/plate and infected with 1 mL of virus-containing media (approx. 5 MOIs). After 3 days, the cells are scraped off the plate and centrifuged at 500 rpm for 5 minutes. Cell pellets from 10-20, 100 cm^2 plates are resuspended in 50 mL of ice-cold lysis buffer (25 mM Tris-HCl, pH 7.5, 2 mM EDTA, 1% NP-40, 1 mM DTT, 1 mMP MSF). The cells are stirred on ice for 15 minutes and then centrifuged at 5,000 rpms for 20 minutes.
# Purification of GST-tagged proteins: The centrifuged cell lysate is loaded onto a 2 mL glutathione-sepharose column (Pharmacia) and washed 3× with 10 mL of 25 mM Tris-HCl, pH 7.5, 2 mM EDTA, 1 mM DTT, 200 mM NaCl. The GST-tagged proteins are then eluted by 10 applications (1 mL each) of 25 mM Tris-HCl, pH 7.5, 10 mM reduced-glutathione, 100 mM NaCl, 1 mM DTT, 10% glycerol and stored at −70° C.
# Measure of enzyme activity: Tyrosine protein kinase assays with purified GST-PDK1 are carried out in a final volume of 30 μL containing 100 ng of enzyme protein, 50 mM HEPES, pH 7.6, 10 mM MgCl2, 1 mM DTT, 10 μM Na3VO4, 100 μg/mL casein, 1% DMSO, 0.1 mM EGTA, pH 8.0, 10.0 μM ATP and 0.1 μCi [γ-^33P] ATP. The activity is assayed in the presence or absence of inhibitors [compounds of formula (I)] by measuring the incorporation of ^33P from [γ^33P] ATP into appropriate substrates. The assay is carried out in 96-well plates at ambient temperature for 30 minutes under conditions described below and terminated by the addition of 20 μL of 125 mM EDTA. Subsequently, 40 μL of the reaction mixture are transferred onto Immobilon-PVDF membrane (Millipore) previously soaked for 5 minutes with methanol, rinsed with water, then soaked for 5 minutes with 0.5% H3PO4 and mounted on vacuum manifold with disconnected vacuum source. After spotting all samples, vacuum is connected and each well-rinsed with 200 μL 0.5% H3PO4. Membranes are removed and washed 4× on a shaker with 1.0% H3PO4, once with ethanol. Membranes are counted after drying at ambient temperature, mounting in Packard TopCount 96-well frame, and addition of 10 μl/well of Microscint™ (Packard). IC50 values of compounds of formula (I) are calculated by linear regression analysis of the percentage inhibition of each compound in duplicate, at four concentrations (usually 0.01, 0.1, 1 and 10 μM). […]
row,IC50 [nM],Structure (SMILES)
1,≤ 500,"NCCCc1ccc(-n2cnc3cnc4ccc(/C=C/c5ccccc5)cc4c32)cc1 [Example 38, 3-[4-(8-trans-Styryl-imidazo[4,5-c]quinolin-1-yl)-phenyl]-propylamine]"
2,≤ 500,"NCCc1ccc(-n2cnc3cnc4ccc(C#Cc5cccnc5)cc4c32)cc1 [Example 4, 2-[4-(8-Pyridin-3-ylethynyl-imidazo[4,5-c]quinolin-1-yl)-phenyl]-ethylamine]"
3,≤ 500,"Cc1nc2cnc3ccc(C#Cc4cccnc4)cc3c2n1-c1ccc(CCN)cc1 [Example 35, 2-[4-(2-Methyl-8-pyridin-3-ylethynyl-imidazo[4,5-c]quinolin-1-yl)-phenyl]-ethylamine]"
4,≤ 500,"NCCCc1ccc(-n2cnc3cnc4ccc(C#Cc5cccnc5)cc4c32)cc1 [Example 11, 3-[4-(8-Pyridin-3-ylethynyl-imidazo[4,5-c]quinolin-1-yl)-phenyl]-propylamine]"
5,≤ 500,"Cc1nc2cnc3ccc(C#Cc4ccccc4)cc3c2n1-c1ccc(CCN)cc1 [Example 32, 2-[4-(2-Methyl-8-phenylethynyl-imidazo[4,5-c]quinolin-1-yl)-phenyl]-ethylamine]"
6,≤ 500,"COc1ccc(C#Cc2cc3c(cc2F)ncc2ncn(-c4ccc(CCN)cc4)c23)cc1 [Example 28, 2-{4-[7-Fluoro-8-(4-methoxy-phenylethynyl)-imidazo[4,5-c]quinolin-1-yl]-phenyl}-ethylamine]"
7,500 to 1000,"COc1cccc(C#Cc2ccc3ncc4nc(C)n(-c5ccc(CCN)cc5)c4c3c2)c1 [Example 33, 2-{4-[8-(3-Methoxy-phenylethynyl)-2-methyl-imidazo[4,5-c]quinolin-1-yl]-phenyl}-ethylamine]"
8,500 to 1000,"NCCc1ccc(-n2cnc3cnc4cc(F)c(C#Cc5ccc6c(c5)OCO6)cc4c32)cc1 [Example 30, 2-[4-(7-Fluoro-8-benzo[1,3]dioxol-5-ylethynyl-imidazo[4,5-c]quinolin-1-yl)-phenyl]-ethylamine]"
9,≤ 500,"NCCCc1ccc(-n2cnc3cnc4ccc(C#Cc5ccccc5)cc4c32)cc1 [Example 8, 3-[4-(8-Phenylethynyl-imidazo[4,5-c]quinolin-1-yl)-phenyl]-propylamine]"
10,≤ 500,"COc1ccc(C#Cc2ccc3ncc4ncn(-c5ccc(CCN)cc5)c4c3c2)cc1 [Example 3, 2-{4-[8-(4-Methoxy-phenylethynyl)-imidazo[4,5-c]quinolin-1-yl]-phenyl}-ethylamine]"
11,≤ 500,"COc1ccc(C#Cc2ccc3ncc4ncn(-c5ccc(CCCN)cc5)c4c3c2)cc1 [Example 10, 3-{4-[8-(4-Methoxy-phenylethynyl)-imidazo[4,5-c]quinolin-1-yl]-phenyl}-propylamine]"
12,500 to 1000,"NCCc1ccc(-n2cnc3cnc4cc(F)c(C#Cc5ccccc5)cc4c32)cc1 [Example 26, 2-[4-(7-Fluoro-8-phenylethynyl-imidazo[4,5-c]quinolin-1-yl)-phenyl]-ethylamine]"
13,500 to 1000,"NCCc1ccc(-n2cnc3cnc4cc(F)c(C#Cc5cccnc5)cc4c32)cc1 [Example 29, 2-[4-(7-Fluoro-8-pyridin-3-ylethynyl-imidazo[4,5-c]quinolin-1-yl)-phenyl]-ethylamine]"
14,≤ 500,"NCCCc1ccc(-n2cnc3cnc4ccc(C#Cc5ccc6c(c5)OCO6)cc4c32)cc1 [Example 12, 3-[4-(8-Benzo[1,3]dioxol-5-ylethynyl-imidazo[4,5-c]quinolin-1-yl)-phenyl]-propylamine]"
15,≤ 500,"COc1ccc(C#Cc2ccc3ncc4nc(C)n(-c5ccc(CCN)cc5)c4c3c2)cc1 [Example 34, 2-{4-[8-(4-Methoxy-phenylethynyl)-2-methyl-imidazo[4,5-c]quinolin-1-yl]-phenyl}-ethylamine]"
16,500 to 1000,"COc1cccc(C#Cc2cc3c(cc2F)ncc2ncn(-c4ccc(CCN)cc4)c23)c1 [Example 27, 2-{4-[7-Fluoro-8-(3-methoxy-phenylethynyl)-imidazo[4,5-c]quinolin-1-yl]-phenyl}-ethylamine]"
17,500 to 1000,"NCCCc1ccc(-n2cnc3cnc4cc(Cl)c(C#Cc5cccnc5)cc4c32)cc1 [Example 23, 3-[4-(7-Chloro-8-pyridin-3-ylethynyl-imidazo[4,5-c]quinolin-1-yl)-phenyl]-propylamine]"
18,≤ 500,"COc1cccc(C#Cc2ccc3ncc4ncn(-c5ccc(CCCN)cc5)c4c3c2)c1 [Example 9, 3-{4-[8-(3-Methoxy-phenylethynyl)-imidazo[4,5-c]quinolin-1-yl]-phenyl}-propylamine]"
19,≤ 500,"NCCCc1ccc(-n2cnc3cnc4ccc(C#Cc5ccc(S(N)(=O)=O)cc5)cc4c32)cc1 [Example 13, 4-{1-[4-(3-Amino-propyl)-phenyl]-1H-imidazo[4,5-c]quinolin-8-ylethynyl}-benzenesulfonamide]"
